Values of other authors in patent publication US9629875B2, “Clostridium difficile sporicidal compositions” (Microdermis Corporation, priority 2014, dated 2017).

Test system: Bacillus subtilis
Conditions: 0.1% L-alanine in the absence of sporicidal agents, after 4 hours

SMILES: C[C@H](N)C(=O)O [L-alanine]
- colony-forming unit (CFU) relative count: 116%
